US12624034B2, “Non-covalent modifiers of AKT1 and uses thereof” (Terremoto Biosciences, Inc., priority 2023, dated 2026)
Like-named read-outs stand apart in the source and are kept apart here.

How the values were obtained:
AKT1 WT = target: T1, AKT1 WT (Homo sapiens, UniProt P31749); assay: Live cell AKT1 WT target engagement by NanoBRET competitive probe displacement in HEK293 cells; format: binding; details: 2 h at 37° C., read-out: AKT1 WT IC50
T1 construct: expressed in transfected cells; host or cells: HEK293
T1 sequence (P31749 whole entry): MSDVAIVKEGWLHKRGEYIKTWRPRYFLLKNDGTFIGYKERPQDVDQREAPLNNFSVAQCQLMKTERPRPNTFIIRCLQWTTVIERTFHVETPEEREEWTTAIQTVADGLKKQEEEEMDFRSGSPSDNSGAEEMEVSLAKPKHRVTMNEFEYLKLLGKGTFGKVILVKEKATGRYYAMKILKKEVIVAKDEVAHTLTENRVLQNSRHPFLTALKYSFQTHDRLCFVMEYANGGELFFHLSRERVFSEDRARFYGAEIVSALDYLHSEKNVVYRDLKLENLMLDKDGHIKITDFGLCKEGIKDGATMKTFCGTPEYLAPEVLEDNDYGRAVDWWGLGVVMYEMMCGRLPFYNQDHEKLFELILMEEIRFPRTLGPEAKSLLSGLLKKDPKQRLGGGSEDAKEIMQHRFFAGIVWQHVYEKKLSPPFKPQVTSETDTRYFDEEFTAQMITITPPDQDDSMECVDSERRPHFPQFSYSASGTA

AKT2 = target: T2, AKT2 (Homo sapiens, UniProt P31751); assay: Live cell AKT2 target engagement by NanoBRET competitive probe displacement in HEK293 cells; format: binding; details: 2 h at 37° C., read-out: AKT2 IC50
T2 construct: expressed in transfected cells; host or cells: HEK293
T2 sequence (P31751 whole entry): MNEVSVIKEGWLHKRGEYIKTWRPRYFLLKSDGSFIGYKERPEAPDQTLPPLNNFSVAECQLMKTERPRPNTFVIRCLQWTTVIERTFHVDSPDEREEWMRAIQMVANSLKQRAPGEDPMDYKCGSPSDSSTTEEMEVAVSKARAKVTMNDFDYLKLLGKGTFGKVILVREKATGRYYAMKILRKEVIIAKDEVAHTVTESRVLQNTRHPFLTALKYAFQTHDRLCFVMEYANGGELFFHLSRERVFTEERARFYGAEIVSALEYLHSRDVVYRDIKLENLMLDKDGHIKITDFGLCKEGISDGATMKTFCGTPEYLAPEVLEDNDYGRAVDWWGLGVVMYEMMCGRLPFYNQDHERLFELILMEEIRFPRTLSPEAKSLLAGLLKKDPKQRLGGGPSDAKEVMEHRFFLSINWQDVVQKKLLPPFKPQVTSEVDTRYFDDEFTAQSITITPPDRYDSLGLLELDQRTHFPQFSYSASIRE

[1] = NanoBRET live cell target engagement, HEK293 cells
[2] = NanoBRET competitive probe displacement, live HEK293 cells

| SMILES | IC50 (AKT1 WT; [1]) [nM] | IC50 (AKT2; [1]) [nM] | IC50 (AKT1 WT; [2]) [nM] | IC50 (AKT2; [2]) [nM] |
| --- | --- | --- | --- | --- |
| CN(C(=O)N[C@H]1CCc2cc(-n3c(-c4cccnc4N)nc4ccc(-n5cccn5)nc43)ccc21)c1ccccc1 [Compound 132, (S)-3-(5-(2-(2-aminopyridin-3-yl)-5-(1H-pyrazol-1-yl)-3H-imidazo[4,5-b]pyridin-3-yl)-2,3-dihydro-1H-inden-1-yl)-1-methyl-1-phenylurea] | > 1000 | 2550 | – | – |
| Cn1ccc(=O)n1-c1ccn(-c2ccc3nc(-c4cccnc4N)n(-c4ccc5c(c4)CC[C@@H]5NC4CCN(C(=O)C5CC5)CC4)c3n2)n1 [Compound 573] | – | – | 318 | 5640 |
| Cc1csc(-c2ccc3nc(-c4cccnc4N)n(-c4ccc5c(c4)CC[C@@H]5n4ccnn4)c3n2)n1 [Compound 316] | 16.9 | 201 | – | – |
| Nc1ncccc1-c1nc2ccc(-n3cccn3)nc2n1-c1ccc2c(c1)CC[C@@H]2n1cc(C2CCO2)nn1 (stereo partly drawn) [Compound 354] | 39.8 | 900 | – | – |
| Nc1ncccc1-c1nc2ccc(-n3ccc(C4CCOCC4)n3)nc2n1-c1ccc2c(c1)CC[C@@H]2NC1CCN(C(=O)C2CC2)CC1 [Compound 487] | – | – | 42.8 | > 10000 |
| Cc1nnc(-c2ccc3nc(-c4cccnc4N)n(-c4ccc5c(c4)CC[C@@H]5NC4CCN(C(=O)C5CC5)CC4)c3n2)s1 [Compound 516] | – | – | 102 | 6240 |
| COCc1ccn(-c2ccc3nc(-c4cccnc4N)n(-c4ccc5c(c4)CC[C@@H]5NC4CCN(C(=O)C5CC5)CC4)c3n2)n1 [Compound 590] | – | – | 45.2 | 1540 |
| Cn1nc(F)cc1C(=O)N[C@H]1CCc2cc(-n3c(-c4cccnc4N)nc4ccc(-n5cccn5)nc43)ccc21 [Compound 396] | – | – | 14.7 | 250 |
| Nc1ncccc1-c1nc2ccc(-n3cccn3)nc2n1-c1ccc2c(c1)CC[C@H]2NC1CCN(C(=O)C2CC2)CC1 [Compound 500] | – | – | 81.5 | > 10000 |
| Nc1ncccc1-c1nc2c(C(F)F)cc(-n3cccn3)nc2n1-c1ccc2c(c1)CC[C@@H]2NC(=O)c1ccc(C(F)F)nc1 [Compound 177, (S)—N-(5-(2-(2-aminopyridin-3-yl)-7-(difluoromethyl)-5-(1H-pyrazol-1-yl)-3H-imidazo[4,5-b]pyridin-3-yl)-2,3-dihydro-1H-inden-1-yl)-6-(difluoromethyl)nicotinamide] | 10.6 | 47.2 | – | – |
| Nc1ncccc1-c1nc2ccc(-n3cccn3)nc2n1-c1ccc2c(c1)CC[C@@H]2NC1CCc2nc(C(F)F)sc21 (stereo partly drawn) [Compound 601] | – | – | 102 | 2500 |
| Nc1ncccc1-c1nc2ccc(-n3cccn3)nc2n1-c1ccc2c(c1)CC[C@@H]2NC(=O)c1cccc(F)c1 [Compound 332] | 7.58 | 60.2 | – | – |
| COc1cc(C(=O)N[C@H]2CCc3cc(-n4c(-c5cccnc5N)nc5ccc(-n6cccn6)nc54)ccc32)ccc1F [Compound 336] | 17.7 | 305 | – | – |
| Cc1ccc2nc(-c3cccnc3N)n(-c3ccc4c(c3)CC[C@@H]4NC(=O)c3cccnc3C)c2n1 [Compound 145] | 170 | > 10000 | – | – |
| Nc1ncccc1-c1nc2ccc(-n3cccn3)nc2n1-c1ccc2c(c1)CC[C@@H]2NC1CC2(CCN(c3ccccn3)CC2)C1 [Compound 449] | – | – | 79.7 | 1200 |
| Nc1ncccc1-c1nc2ccc(-n3cccn3)nc2n1-c1ccc2c(c1)CC[C@@H]2n1ccnc1 [Compound 273, (S)-3-(3-(1-(1H-imidazol-1-yl)-2,3-dihydro-1H-inden-5-yl)-5-(1H-pyrazol-1-yl)-3H-imidazo[4,5-b]pyridin-2-yl)pyridin-2-amine] | 11.6 | 165 | – | – |
| Cc1ncccc1-c1cn([C@H]2CCc3cc(-n4c(-c5cccnc5N)nc5ccc(-n6cccn6)nc54)ccc32)nn1 [Compound 254] | 23.9 | 753 | – | – |
| COc1cc(F)cc(C(=O)N[C@H]2CCc3cc(-n4c(-c5cccnc5N)nc5ccc(-n6cccn6)nc54)ccc32)c1 [Compound 334] | 8.16 | 21.4 | – | – |
| COc1nccc(C(=O)N[C@H]2CCc3cc(-n4c(-c5cccnc5N)nc5ccc(-n6nccn6)nc54)ccc32)c1C [Compound 380] | 13.9 | 312 | – | – |
| Nc1ncccc1-c1nc2ccc(-n3cccn3)nc2n1-c1ccc2c(c1)CC[C@@H]2NC(=O)c1ccc2[nH]ncc2c1 [Compound 193] | 6.71 | 42.3 | – | – |
| Nc1ncccc1-c1nc2ccc(-n3cccn3)nc2n1-c1ccc2c(c1)CC[C@@H]2NC(=O)c1cccn2ccnc12 [Compound 161] | 94.6 | 1910 | – | – |
| Nc1ncccc1-c1nc2ccc(-n3cccn3)nc2n1-c1ccc2c(c1)CC[C@@H]2NC(=O)c1ccnc(OC(F)F)c1 [Compound 202] | 5.59 | 29.4 | – | – |
| COc1ccc(C(=O)N[C@H]2CCc3cc(-n4c(-c5cccnc5N)nc5ccc(-n6cccn6)nc54)ccc32)cc1F [Compound 241] | 4.06 | 15.7 | – | – |
| Cc1ccc(C(=O)N[C@H]2CCc3cc(-n4c(-c5cccnc5N)nc5ccc(-n6cccn6)nc54)ccc32)c(C(F)F)n1 [Compound 167] | 40.9 | 830 | – | – |

| SMILES | IC50 (AKT1 WT; [1]) [nM] | IC50 (AKT2; [1]) [nM] | IC50 (AKT1 WT; [2]) [nM] | IC50 (AKT2; [2]) [nM] |
| --- | --- | --- | --- | --- |
| Cc1ccc(C(=O)N[C@H]2CCc3cc(-n4c(-c5cccnc5N)nc5ccc(-c6ccn(C(F)F)n6)nc54)ccc32)cn1 [Compound 73] | 9.03 | 49.8 | – | – |
| Cc1ccc(C(=O)N[C@H]2CCc3cc(-n4c(-c5cccnc5N)nc5ccc(-n6ccc(OC(F)F)n6)nc54)ccc32)cn1 [Compound 535] | – | – | 6.42 | 42.1 |
| Cc1cc(C(=O)N[C@H]2CCc3cc(-n4c(-c5cccnc5N)nc5ccc(-n6cccn6)nc54)ccc32)c(C)nc1C [Compound 150] | 18.2 | 107 | – | – |
| CN1CC(Oc2cc(C(=O)N[C@H]3CCc4cc(-n5c(-c6cccnc6N)nc6ccc(-n7cccn7)nc65)ccc43)ccn2)C1 [Compound 179] | 80 | 1270 | – | – |
| Nc1ncccc1-c1nc2ccc(-n3nccn3)nc2n1-c1ccc2c(c1)CC[C@@H]2NC(=O)c1ccc(CO)nc1 [Compound 490] | – | – | 74.3 | 3200 |
| COc1cc(C(=O)N[C@H]2CCc3cc(-n4c(-c5cccnc5N)nc5ccc(-n6cccn6)nc54)ccc32)nn1C [Compound 216] | 58.4 | 1390 | – | – |
| Nc1ncccc1-c1nc2ccc(-n3cccn3)nc2n1-c1ccc2c(c1)CC[C@@H]2NC(=O)c1cnc2cccn2c1 [Compound 291] | 5.14 | 56.5 | – | – |
| C#Cc1ncccc1C(=O)N[C@H]1CCc2cc(-n3c(-c4cccnc4N)nc4ccc(-n5cccn5)nc43)ccc21 [Compound 113] | 21 | 537 | – | – |
| COCCOc1cc(C(=O)N[C@H]2CCc3cc(-n4c(-c5cccnc5N)nc5ccc(-n6cccn6)nc54)ccc32)ccn1 [Compound 203] | 10.5 | 99.6 | – | – |
| CC(=O)Nc1c(F)cc(C(=O)N[C@H]2CCc3cc(-n4c(-c5cccnc5N)nc5ccc(-n6cccn6)nc54)ccc32)cc1F [Compound 294] | 5.27 | 29.1 | – | – |
| CNS(=O)(=O)c1ccc(C(=O)N[C@H]2CCc3cc(-n4c(-c5cccnc5N)nc5ccc(-n6cccn6)nc54)ccc32)cc1 [Compound 308] | 15.1 | 296 | – | – |
| Cc1ncccc1C(=O)N[C@@H]1c2ccc(-n3c(-c4cccnc4N)nc4ccc(-n5cccn5)nc43)cc2CC1(F)F [Compound 187] | 6.73 | 21.3 | – | – |
| Nc1ncccc1-c1nc2ccc(-n3cccn3)nc2n1-c1ccc2c(c1)CC[C@@H]2NC1CCc2cc(O)ccc21 (stereo partly drawn) [Compound 498] | – | – | 43 | 620 |
| Cn1ccc(C#Cc2ncccc2C(=O)N[C@H]2CCc3cc(-n4c(-c5cccnc5N)nc5ccc(-n6cccn6)nc54)ccc32)n1 [Compound 181] | 78.4 | 3680 | – | – |
| Nc1ncccc1-c1nc2ccc(-n3ccc(NC4CC4)n3)nc2n1-c1ccc2c(c1)CC[C@@H]2NC1CCN(C(=O)C2CC2)CC1 [Compound 599] | – | – | 25.4 | 1280 |
| Nc1ncccc1-c1nc2ccc(-n3cccn3)nc2n1-c1ccc2c(c1)CC[C@@H]2NC(=O)c1ccc2ccnn2c1 [Compound 290] | 3.83 | 18.9 | – | – |
| Fc1ccccc1-c1nc2ccc(-n3cccn3)nc2n1-c1ccc2c(c1)CC[C@@H]2n1cnnc1 [Compound 529] | – | – | 8.2 | 621 |
| Nc1ncccc1-c1nc2ccc(-n3cccn3)nc2n1-c1ccc2c(c1)CC[C@@H]2NC(=O)c1ccc(C(F)(F)F)nc1 [Compound 77] | 13.6 | 50.1 | – | – |
| CC(C)(O)c1cn([C@H]2CCc3cc(-n4c(-c5cccnc5N)nc5ccc(-n6cccn6)nc54)ccc32)nn1 [Compound 219] | 119 | 6640 | – | – |
| Nc1ncccc1-c1nc2ccc(-n3ccc(OC4CC4)n3)nc2n1-c1ccc2c(c1)CC[C@@H]2NC1CCN(C(=O)C2CC2)CC1 [Compound 497] | – | – | 18.9 | 1280 |
| Cc1csc(-c2ccc3nc(-c4cccnc4N)n(-c4ccc5c(c4)CC[C@@H]5NC(=O)c4ccn(C)n4)c3n2)n1 [Compound 374, (S)—N-(5-(2-(2-aminopyridin-3-yl)-5-(4-methylthiazol-2-yl)-3H-imidazo[4,5-b]pyridin-3-yl)-2,3-dihydro-1H-inden-1-yl)-1-methyl-1H-pyrazole-3-carboxamide] | 27.8 | 389 | – | – |
| Nc1ncccc1-c1nc2ccc(-n3cccn3)nc2n1-c1ccc2c(c1)CC[C@@H]2NC1CCN(c2cccnc2)C1 (stereo partly drawn) [Compound 472] | – | – | 18 | 404 |
| Nc1ncccc1-c1nc2ccc(-n3ccc(Oc4ccncc4)n3)nc2n1-c1ccc2c(c1)CC[C@@H]2NC1CCN(C(=O)C2CC2)CC1 [Compound 575] | – | – | 221 | 3300 |
| Cc1nc(C2CC2)ccc1C(=O)N[C@H]1CCc2cc(-n3c(-c4cccnc4N)nc4ccc(-n5nccn5)nc43)ccc21 [Compound 539] | – | – | 5.11 | 430 |
